≈ marks a conversion by molar mass, not a printed value. Where “and” joins values, the source holds several entries; their conditions need not be identical. Identical values can stand only once.
Legend:
Assay in all cases: ≥ marks a high value that may be exact or a test limit, other limits are often not marked, values filed in µg/mL are converted to µM
[1] = test system: Staphylococcus aureus ATCC 25923
Staphylococcus aureus = test system: Staphylococcus aureus
[2] = test system: Escherichia coli ATCC 25922
Pseudomonas aeruginosa 1 = test system: Pseudomonas aeruginosa 1
Escherichia coli = test system: Escherichia coli
Pseudomonas aeruginosa 2 = test system: Pseudomonas aeruginosa 2
[3] = test system: Pseudomonas aeruginosa ATCC 27853
[4] = test system: Staphylococcus haemolyticus
[5] = test system: Salmonella enterica subsp. enterica serovar Enteritidis
Pseudomonas aeruginosa = test system: Pseudomonas aeruginosa
Vibrio cholerae = test system: Vibrio cholerae
Clostridium perfringens = test system: Clostridium perfringens
Aerococcus viridans = test system: Aerococcus viridans
Enterobacter cloacae = test system: Enterobacter cloacae
Salmonella typhimurium = test system: Salmonella typhimurium
Candida albicans = test system: Candida albicans
Bacillus megaterium = test system: Bacillus megaterium
Saccharomyces cerevisiae = test system: Saccharomyces cerevisiae
Klebsiella pneumoniae = test system: Klebsiella pneumoniae
Escherichia coli B = test system: Escherichia coli B
Streptococcus pneumoniae = test system: Streptococcus pneumoniae
Listeria monocytogenes = test system: Listeria monocytogenes
[6] = test system: Salmonella enterica subsp. enterica serovar Typhimurium C77-31
[7] = test system: Salmonella enterica subsp. enterica serovar Pullorum C79-13
[8] = test system: Pseudomonas aeruginosa PAO1
[9] = test system: Pseudomonas aeruginosa CICC 21630
[10] = test system: Pseudomonas aeruginosa CICC 21625
Escherichia coli UB1005 = test system: Escherichia coli UB1005
Escherichia coli K88 = test system: Escherichia coli K88
[11] = test system: Salmonella enterica subsp. enterica serovar Typhimurium ATCC 14028
Escherichia coli K99 = test system: Escherichia coli K99
Acinetobacter baumannii = test system: Acinetobacter baumannii

CC[C@H](C)[C@H](NC(=O)CN)C(=O)NCC(=O)N[C@@H](C)C(=O)N[C@H](C(=O)N[C@@H](CC(C)C)C(=O)N[C@@H](CCCCN)C(=O)N[C@@H](Cc1c[nH]c2ccccc12)C(=O)N[C@@H](CC(C)C)C(=O)N1CCC[C@H]1C(=O)N[C@@H](C)C(=O)N[C@@H](CC(C)C)C(=O)N[C@H](C(=O)N[C@@H](CCCCN)C(=O)N[C@@H](CCCN=C(N)N)C(=O)N[C@@H](CCCCN)C(=O)N[C@@H](CCCN=C(N)N)C(=O)N[C@@H](CCC(N)=O)C(=O)N[C@@H](CCC(N)=O)C(=O)O)[C@@H](C)CC)C(C)C [GIGAVLKWLPALIKRKRQQ]
MIC [1]: 0.0575 µM (≈ 0.125 µg/mL)
MIC (Staphylococcus aureus): 0.115 µM and 0.163 µM
MIC [2]: 0.575 µM (≈ 1.25 µg/mL)
MIC (Pseudomonas aeruginosa 1): 1.15 µM (≈ 2.5 µg/mL)
MIC (Escherichia coli): 0.405 µM (≈ 0.88 µg/mL)
MIC (Pseudomonas aeruginosa 2): 4.6 µM (≈ 10 µg/mL)
MIC [3]: 2.3 µM (≈ 5 µg/mL)

CC[C@H](C)[C@H](NC(=O)[C@H](CC(C)C)NC(=O)[C@H](CO)NC(=O)[C@@H](NC(=O)[C@@H](NC(=O)[C@H](CC(C)C)NC(=O)CN)C(C)C)[C@@H](C)O)C(=O)N[C@@H](CCCCN)C(=O)NCC(=O)N[C@@H](C)C(=O)NCC(=O)N[C@@H](CCCCN)C(=O)N[C@@H](CC(C)C)C(=O)N[C@@H](CC(C)C)C(=O)NCC(=O)NCC(=O)N[C@@H](CC(C)C)C(=O)N[C@@H](Cc1ccccc1)C(=O)NCC(=O)N[C@@H](CO)C(=O)N[C@H](C(=O)N[C@H](C(=O)NCC(=O)NCC(=O)N[C@@H](CCC(N)=O)C(=O)N[C@@H](CO)C(=O)O)[C@@H](C)O)C(C)C [GLVTSLIKGAGKLLGGLFGSVTGGQS]
MIC [4]: ≥ 50 µM
MIC [5]: 3.1 µM (≈ 7.5 µg/mL)
MIC (Pseudomonas aeruginosa): 3.1 µM (≈ 7.5 µg/mL)
MIC (Vibrio cholerae): 25 µM (≈ 60.4 µg/mL)
MIC (Staphylococcus aureus): 6.25 µM (≈ 15.1 µg/mL)
MIC (Clostridium perfringens): ≥ 50 µM
MIC (Aerococcus viridans): 3.1 µM (≈ 7.5 µg/mL)
MIC (Enterobacter cloacae): 12.5 µM (≈ 30.2 µg/mL)
MIC (Salmonella typhimurium): 3.1 µM (≈ 7.5 µg/mL)
MIC (Candida albicans): 50 µM (≈ 121 µg/mL)
MIC (Bacillus megaterium): 25 µM (≈ 60.4 µg/mL)
MIC (Saccharomyces cerevisiae): ≥ 50 µM
MIC (Klebsiella pneumoniae): 6.25 µM (≈ 15.1 µg/mL)
MIC (Escherichia coli B): 6.25 µM (≈ 15.1 µg/mL)
MIC (Streptococcus pneumoniae): 6.25 µM (≈ 15.1 µg/mL)
MIC (Listeria monocytogenes): 25 µM (≈ 60.4 µg/mL)

CC[C@H](C)[C@H](N)C(=O)N[C@@H](CCCN=C(N)N)C(=O)N1CCC[C@H]1C(=O)N[C@H](C(=O)N[C@H](C(=O)N[C@@H](CCCN=C(N)N)C(=O)N1CCC[C@H]1C(=O)N[C@H](C(=O)N[C@H](C(=O)N[C@@H](CCCN=C(N)N)C(=O)N1CCC[C@H]1C(=O)N[C@H](C(=O)N[C@H](C(=O)N[C@@H](CCCN=C(N)N)C(=O)N1CCC[C@H]1C(=O)N[C@H](C(N)=O)[C@@H](C)CC)[C@@H](C)CC)[C@@H](C)CC)[C@@H](C)CC)[C@@H](C)CC)[C@@H](C)CC)[C@@H](C)CC [IRPIIRPIIRPIIRPI]
MIC [6]: 16 µM (≈ 31 µg/mL)
MIC (Pseudomonas aeruginosa): > 64 µM
MIC [7]: 16 µM (≈ 31 µg/mL)
MIC [8]: > 64 µM
MIC [9]: ≥ 64 µM
MIC [10]: ≥ 64 µM
MIC (Escherichia coli UB1005): 16 µM (≈ 31 µg/mL)
MIC [2]: 16 µM (≈ 31 µg/mL)
MIC (Escherichia coli K88): 4 µM (≈ 7.74 µg/mL)
MIC [11]: 16 µM (≈ 31 µg/mL)
MIC (Escherichia coli K99): 8 µM (≈ 15.5 µg/mL)
MIC (Escherichia coli): 16 µM (≈ 31 µg/mL)
MIC (Acinetobacter baumannii): 8 µM (≈ 15.5 µg/mL)
MIC (Klebsiella pneumoniae): 32 µM (≈ 61.9 µg/mL)
MIC [3]: > 64 µM

— DBAASP
